Reference: patent US20120100204A1, “TGF-Beta Stimulating Agent Compositions and Combinations” (TCP INNOVATIONS LTD, priority 2007, published 2012)
Marks after values point to notes of the source that are not given here.

What was measured:
TGF-beta activity = TGF-beta activity by effect on SMC proliferation (CPD) with and without neutralising anti-TGF-beta antibody; format: cell-based, human; settings: 0 μM T, 72 hrs
Experimental: (1995) Cardiovasc. Res. 29:848-55). […] The cells were then incubated for either 24 hrs or 72 hrs depending on the experiment. All treatment conditions were established in triplicate. Finally, TGF-beta activity was estimated by the direct effects on smooth muscle cell proliferation within the assay. For these experiments, the test agents were added, in triplicate, to cells both in the presence and absence of a neutralising antibody to TGF-beta (AB-100-NA; […] R&D Systems). After 72 hrs incubation, the cells are washed and then released completely using 0.02% trypsin/EDTA (Gibco) at 37° C. for 10 mins, then counted manually using a haemocytometer. Importantly, the number of cells at 0 hrs must also be determined (using the same counting method, on a replicate set of three wells plated out specifically for the purpose). For each treatment condition, the TGF-beta-dependent inhibition of proliferation is expressed as the fold increase in the cumulative population doubling time in the absence of the neutralising antibody compared to the cumulative population doubling time in the presence of the neutralising antibody. […] Failure of either control led to the repeat of the experiment.

[1] = Tamoxifen treatment; cited from earlier work
DBA/1 mice = test: collagen-induced arthritis, footpad thickness; format: in vivo; settings: from the booster injection onwards, Tamoxifen 1 mg/kg/day p.o, aspirin 30 mg/kg/day p.o
Experimental: (§1) Collagen-induced arthritis was induced in adult male DBA/1 mice as previously described (Courtenay et al. (1980) Nature 283:666-8). Adult (12 week old) male DBA/1 mice were divided into groups of six animals. Mice received 100 μg per mouse of bovine type II collagen (Sigma) in Freunds Complete Adjuvant (FCA) by the subcutaneous route, while a control group received an identical injection of type I collagen in FCA. Twenty-one days later, all groups of mice received an intraperitoneal booster injection containing 100 μg per mouse of the same collagen type as previously, but in the absence of adjuvant. […] Foodpad thickness was determined each day using a digital caliper EC1507 (Moore & Wright) accurate to 0.01 mm. The thickness of each footpad was determined three times on each day by a single operator blind to the treatment condition of the mouse, and the footpad thickness of each mouse on each day was reported as the mean for the three measurements for all four paws. Errors represent the standard error of the mean among the six animals in each group.

[2] = translated from the relative risk; cited from earlier work
[3] = pro-thrombin time (PTT) in men with coronary artery disease; settings: men with coronary heart disease, 3 months, Tamoxifen 20 mg once daily, vs baseline
Experimental: Patients continued with all other medications (statins, ACE inhibitors, beta blockers, calcium channel blockers, diuretics etc), but no patients were taking warfarin or tirofiban.
The coagulant status of the individuals was assessed using the pro-thrombin time (PTT, measured clinically; Hinchingbrooke Hospital, UK). PTT was measured twice, one week apart, prior to beginning the study, and then after 90 days treatment. In each case, each patient acted as their own control, and the impact of the treatment on PTT was assessed using a paired Student's t-test comparing the PTT at 90 days with the average of the two baseline determinations.

[4] = test system: anti-collagen type II antibodies; test: direct ELISA for anti-collagen type II antibodies in serum of collagen-induced arthritis mice; format: in vivo; settings: day 39
Experimental: as §1
A direct ELISA for anti-collagen type II antibodies was used as an alternative assessment of the autoimmune response. Bovine type II collagen was coated onto Maxisorp 96-well ELISA plate wells (Nunc) at 1 μg/well in 50 μl of 50 mM sodium carbonate pH9.0 for 2 hours at 4° C. Wells were blocked with 5% Tween-20/5% sucrose in phosphate-buffered saline for 1 hour at room temperature. Mouse serum at various dilutions was incubated with the collagen-coated wells for 2 hours at room temperature. After three quick washes with tris-buffered saline +0.05% Tween-20, bound murine antibody was detected using a range of different anti-mouse IgG peroxidase conjugates (Pan-IgG A-9174 Sigma Chemical Co; IgA A-4789 Sigma Chemical Company; IgG1, G2a, G2b and G3 Southern Biotechnology) at 1:5000 dilution in tris-buffered saline +0.05% Tween-20 for 1 hour at room temperature. After three further washes, bound peroxidase label was visualised with K-BLUE chromogenic substrate (Skybio, Ltd.) for 20 minutes at room temperature, and the concentration of murine anti-collagen IgG in the serum quantitated by interpolating a standard curve constructed using known concentrations of the murine monoclonal anti-collagen type II IgG, CIICI (NIH Developmental Studies Hybridoma Bank).

[5] = critical micelle concentration; format: physicochemical; settings: in the presence of 20% foetal calf serum
[6] = test system: human aortic vascular smooth muscle cells; test: toxicity to cultured smooth muscle cells; format: cell-based
Experimental: The cells were cultured (37° C.; 5% CO2) in DMEM+20% foetal calf serum (FCS), and subcultured every 5 days at 1:2 dilution, using 0.02% trypsin/EDTA (Gibco).
For the experiments, the cells were subcultured into 12-well cluster plates at 1×10^5 cells/cm^2, and allowed to grow for 24 hrs. […] The cells were then incubated for either 24 hrs or 72 hrs depending on the experiment. All treatment conditions were established in triplicate.

Compound | TGF-beta activity: ratio of CPD in the absence and presence of neutralising anti-TGF-beta antibody (TGF-beta activity; 10 μM A) | TGF-beta activity: ratio of CPD in the absence and presence of neutralising anti-TGF-beta antibody (TGF-beta activity; 33 μM A) | TGF-beta activity: ratio of CPD in the absence and presence of neutralising anti-TGF-beta antibody (TGF-beta activity; 100 μM A) | TGF-beta activity: ratio of CPD in the absence and presence of neutralising anti-TGF-beta antibody (TGF-beta activity; 100 μM A, listed as A) | endothelial function, a surrogate marker of atherosclerotic disease burden [1] | reduction of the maximal collagen-II induced footpad swelling (DBA/1 mice) | reduction in risk of death from myocardial infarction [2] | change in pro-thrombin time ([3]; Example 5, aspirin 75 mg once daily) | change in pro-thrombin time ([3]; Example 6, clopidogrel 75 mg once daily) | Pan IgG binding to bovine collagen II, median concentration in serum ([4]; DBA/1 mice with collagen-induced arthritis) | IgG1 binding to bovine collagen II, median absorbance ([4]; neat serum) | IgG2a binding to bovine collagen II, median absorbance ([4]; neat serum) | IgG2b binding to bovine collagen II, median absorbance ([4]; neat serum) | IgG3 binding to bovine collagen II, median absorbance ([4]; neat serum) | critical micelle concentration [5] | concentrations toxic to the cells ([6]; after 24 hrs) | doses toxic to the cells ([6]; after 72 hrs)
CC(=O)Oc1ccccc1C(=O)O [Aspirin, acetylsalicylic acid] | 1.05 ± 0.09 fold | 1.13 ± 0.17 fold | 1.25 fold | 1.25 ± 0.06 fold | – | – | – | – | – | – | – | – | – | – | – | – | –
CC/C(=C(\c1ccccc1)c1ccc(OCCN(C)C)cc1)c1ccccc1 [Tamoxifen] | – | – | – | – | improved endothelial function | 36% | 33% | +17% | +19% | 181 µg/mL | <0.05* | 0.081* | 0.482* | 0.069* | approximately 50 μM | above 33 μM | above 10 μM
